{
  "source": "the supplement of paper PMC11208160",
  "data": [
    {"test": "recombinant UMI read abundance after kanamycin selection (control-corrected) (log10(CPM+1)); higher = more efficient recombination; extreme values may be limits of the assay; sequences stand for … in AGTGCAGAGAAAATCGGCCAGTTTTCTCTGCCTGCAGTCCGCATGCCGTGGGACCCCTTGGGTTCTAACCTGTTGCCTAGATTTATGCAGCGGACTGCCTTTCTCCCAAAGTGATAAACCGG…AGGTTGGTTTCACT; site = the 11-nt donor", "summary_of_the_method": "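After plating on IPTG (0.07 mM) plus kanamycin, or unselected, in two replicates, recombinant UMIs were PCR-amplified across the donor–target junction and sequenced. The cells were Escherichia coli co-electroporated with a UMI-tagged donor and donor-binding-loop pair library and a target plasmid with a fixed target and T7-inducible IS621 bridge recombinase. Values are log10(CPM+1), with CPM averaged over replicates and scaled by control-derived factors.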", "values": [
      {"sequence": "GCTTGCCCATGGACCGGTTTTCCCGGTAATCCGTATTTGTT (site GCTTGCCCTAA)", "recombinant UMI read abundance (log10)": 0.0266},
      {"sequence": "GCTTGCCCATGGACCGGTTTTCCCGGTAATCCGTATTTGTT (site GCTTGCCCTAC)", "recombinant UMI read abundance (log10)": 0.0939},
      {"sequence": "GCTTGCCCATGGACCGGTTTTCCCGGTAATCCGTATTTGTT (site GCTTGCCCTAG)", "recombinant UMI read abundance (log10)": 0},
      {"sequence": "GCTTGCCCATGGACCGGTTTTCCCGGTAATCCGTATTTGTT (site GCTTGCCCTAT)", "recombinant UMI read abundance (log10)": 0.013},
      {"sequence": "GCTTGGACATGGACCGGTTTTCCCGGTAATCCGTATTTGAC (site GATTGGACTGT)", "recombinant UMI read abundance (log10)": 0},
      {"sequence": "GCTTGGACATGGACCGGTTTTCCCGGTAATCCGTATTTGAC (site GCTTGGACTGT)", "recombinant UMI read abundance (log10)": 2.39},
      {"sequence": "GCTTGGACATGGACCGGTTTTCCCGGTAATCCGTATTTGAC (site GGTTGGACTGT)", "recombinant UMI read abundance (log10)": 0.132},
      {"sequence": "GCTTGGACATGGACCGGTTTTCCCGGTAATCCGTATTTGAC (site GTTTGGACTGT)", "recombinant UMI read abundance (log10)": 0.707},
      {"sequence": "GCTTGGCCATGGACCGGTTTTCCCGGTAATCCGTATTTGAT (site GCTTGACCTAT)", "recombinant UMI read abundance (log10)": 0.00769},
      {"sequence": "GCTTGGCCATGGACCGGTTTTCCCGGTAATCCGTATTTGAT (site GCTTGCCCTAT)", "recombinant UMI read abundance (log10)": 0.00795},
      {"sequence": "GCTTGGCCATGGACCGGTTTTCCCGGTAATCCGTATTTGAT (site GCTTGGCCTAT)", "recombinant UMI read abundance (log10)": 0},
      {"sequence": "GCTTGGCCATGGACCGGTTTTCCCGGTAATCCGTATTTGAT (site GCTTGTCCTAT)", "recombinant UMI read abundance (log10)": 0.00708},
      {"sequence": "GCTTGTACATGGACCGGTTTTCCCGGTAATCCGTATTTGGT (site GCTTGTACTAC)", "recombinant UMI read abundance (log10)": 1.08},
      {"sequence": "GCTTTAACATGGACCGGTTTTCCCGGTAATCCGTATTTGCT (site GCTTTAACTAG)", "recombinant UMI read abundance (log10)": 0.0522},
      {"sequence": "GCTTTCCCATGGACCGGTTTTCCCGGTAATCCGTATTTGAT (site GCTTACCCTAT)", "recombinant UMI read abundance (log10)": 0},
      {"sequence": "GCTTTCCCATGGACCGGTTTTCCCGGTAATCCGTATTTGAT (site GCTTCCCCTAT)", "recombinant UMI read abundance (log10)": 0.00917},
      {"sequence": "GCTTTCCCATGGACCGGTTTTCCCGGTAATCCGTATTTGAT (site GCTTGCCCTAT)", "recombinant UMI read abundance (log10)": 0.00235},
      {"sequence": "GCTTTCCCATGGACCGGTTTTCCCGGTAATCCGTATTTGAT (site GCTTTCCCTAT)", "recombinant UMI read abundance (log10)": 0.343},
      {"sequence": "GGAAACTCATGGACCGGTTTTCCCGGTAATCCGTATTTGTC (site GGAAACTCTGA)", "recombinant UMI read abundance (log10)": 2.42},
      {"sequence": "GGAAAGACATGGACCGGTTTTCCCGGTAATCCGTATTTGCC (site GGAAAGACTGG)", "recombinant UMI read abundance (log10)": 1.64},
      {"sequence": "GGAAAGACATGGACCGGTTTTCCCGGTAATCCGTATTTGCC (site GGACAGACTGG)", "recombinant UMI read abundance (log10)": 0},
      {"sequence": "GGAAAGACATGGACCGGTTTTCCCGGTAATCCGTATTTGCC (site GGAGAGACTGG)", "recombinant UMI read abundance (log10)": 0.347},
      {"sequence": "GGAAAGACATGGACCGGTTTTCCCGGTAATCCGTATTTGCC (site GGATAGACTGG)", "recombinant UMI read abundance (log10)": 0},
      {"sequence": "GGAAAGGCATGGACCGGTTTTCCCGGTAATCCGTATTTGCT (site AGAAAGGCTAG)", "recombinant UMI read abundance (log10)": 1.75},
      {"sequence": "GGAAAGGCATGGACCGGTTTTCCCGGTAATCCGTATTTGCT (site CGAAAGGCTAG)", "recombinant UMI read abundance (log10)": 1.06},
      {"sequence": "GGAAAGGCATGGACCGGTTTTCCCGGTAATCCGTATTTGCT (site GGAAAGGCTAG)", "recombinant UMI read abundance (log10)": 2.39},
      {"sequence": "GGAAAGGCATGGACCGGTTTTCCCGGTAATCCGTATTTGCT (site TGAAAGGCTAG)", "recombinant UMI read abundance (log10)": 1.25},
      {"sequence": "GGAACAGCATGGACCGGTTTTCCCGGTAATCCGTATTTGCC (site GGAACAGCTGG)", "recombinant UMI read abundance (log10)": 3.09},
      {"sequence": "GGAACATCATGGACCGGTTTTCCCGGTAATCCGTATTTGCT (site CGATCATCTAG)", "recombinant UMI read abundance (log10)": 0},
      {"sequence": "GGAACATCATGGACCGGTTTTCCCGGTAATCCGTATTTGCT (site GGAACATCTAG)", "recombinant UMI read abundance (log10)": 2.03},
      {"sequence": "GGAACTTCATGGACCGGTTTTCCCGGTAATCCGTATTTGGC (site GGAACTTCTGC)", "recombinant UMI read abundance (log10)": 1.94},
      {"sequence": "GGAAGATCATGGACCGGTTTTCCCGGTAATCCGTATTTGAA (site GGAAGATCTTT)", "recombinant UMI read abundance (log10)": 2.06},
      {"sequence": "GGACACCCATGGACCGGTTTTCCCGGTAATCCGTATTTGTT (site GGACACCCTAA)", "recombinant UMI read abundance (log10)": 0.444},
      {"sequence": "GGACACCCATGGACCGGTTTTCCCGGTAATCCGTATTTGTT (site GGCCACCCTAA)", "recombinant UMI read abundance (log10)": 0.011},
      {"sequence": "GGACACCCATGGACCGGTTTTCCCGGTAATCCGTATTTGTT (site GGGCACCCTAA)", "recombinant UMI read abundance (log10)": 0.0209},
      {"sequence": "GGACACCCATGGACCGGTTTTCCCGGTAATCCGTATTTGTT (site GGTCACCCTAA)", "recombinant UMI read abundance (log10)": 0.00995},
      {"sequence": "GGACACGCATGGACCGGTTTTCCCGGTAATCCGTATTTGAC (site GGACACGCTGT)", "recombinant UMI read abundance (log10)": 2.38},
      {"sequence": "GGACGCGCATGGACCGGTTTTCCCGGTAATCCGTATTTGGA (site GGACGCGCTTC)", "recombinant UMI read abundance (log10)": 0.00923}
    ]}
  ]
}
